# Source: patent US9549558B2, “Herbicidal azines” (BASF SE, priority 2012, dated 2017)
# How the values were obtained:
# Assay type in all cases: in vivo
# [1] = system: POLCO (Polygonum convolvulus); experiment: greenhouse post-emergence herbicidal test
# From the text: (§1) The culture containers used were plastic flowerpots containing loamy sand with approximately 3.0% of humus as the substrate. The seeds of the test plants were sown separately for each species.
# (§2) For the post-emergence treatment, the test plants were first grown to a height of 3 to 15 cm, depending on the plant habit, and only then treated with the active ingredients which had been suspended or emulsified in water. For this purpose, the test plants were either sown directly and grown in the same containers, or they were first grown separately as seedlings and transplanted into the test containers a few days prior to treatment.
# (§3) Depending on the species, the plants were kept at 10-25° C. or 20-35° C., respectively.
# (§4) The test period extended over 2 to 4 weeks. During this time, the plants were tended, and their response to the individual treatments was evaluated.
# (§5) Evaluation was carried out using a scale from 0 to 100. 100 means no emergence of the plants, or complete destruction of at least the aerial moieties, and 0 means no damage, or normal course of growth. A moderate herbicidal activity is given at values of at least 60, a good herbicidal activity is given at values of at least 70, and a very good herbicidal activity is given at values of at least 85.
# (§6) The plants used in the greenhouse experiments were of the following species: […]
# [2] = system: AMARE (Amaranthus retroflexus); experiment: greenhouse post-emergence herbicidal test
# From the text: as §1, §2, §3, §4, §5, §6
# [3] = system: CHEAL (Chenopodium album); experiment: greenhouse post-emergence herbicidal test
# From the text: as §1, §2, §3, §4, §5, §6
# VIOAR (Viola arvensis) = experiment: greenhouse pre-emergence herbicidal test
# From the text: as §1
# (§7) For the pre-emergence treatment, the active ingredients, which had been suspended or emulsified in water, were applied directly after sowing by means of finely distributing nozzles. The containers were irrigated gently to promote germination and growth and subsequently covered with transparent plastic hoods until the plants had rooted. This cover caused uniform germination of the test plants, unless this had been impaired by the active ingredients.
# as §3, §4, §5, §6
# [4] = system: CAPBP (Capsella bursa-pastoris); experiment: greenhouse pre-emergence herbicidal test; conditions: CAPBP
# From the text: as §1, §7, §3, §4, §5, §6
# [5] = system: ABUTH (Abutilon theophrasti); experiment: greenhouse post-emergence herbicidal test
# From the text: as §1, §2, §3, §4, §5, §6
# STEME (Stellaria media) = experiment: greenhouse pre-emergence herbicidal test
# From the text: as §1, §7, §3, §4, §5, §6
# SETVI (Setaria viridis) = experiment: greenhouse pre-emergence herbicidal test
# From the text: as §1, §7, §3, §4, §5, §6
# [6] = system: ECHCG (Echinocloa crus-galli); experiment: greenhouse pre-emergence herbicidal test; conditions: 125 g/ha
# From the text: as §1, §7, §3, §4, §5, §6
smiles,measurement,setting,value
Nc1nc(Nc2c(F)c(F)cc(F)c2F)nc(C(F)(F)F)n1 [Example 132],herbicidal activity,[1]; 500 g/ha,very good (a very good herbicidal activity is given at values of at least 85)
same,herbicidal activity,[2]; 500 g/ha,very good (a very good herbicidal activity is given at values of at least 85)
same,herbicidal activity,[3]; 500 g/ha,very good (a very good herbicidal activity is given at values of at least 85)
Cc1ccc(F)c(Nc2nc(N)nc(C(C)(C)F)n2)c1F [Example 40],herbicidal activity,[2]; 0.031 kg/ha,very good (a very good herbicidal activity is given at values of at least 85)
same,herbicidal activity,[3]; 0.031 kg/ha,very good (a very good herbicidal activity is given at values of at least 85)
Nc1nc(Nc2c(F)c(F)c(F)c(F)c2F)nc(C(F)(F)Cl)n1 [Example 146],herbicidal activity,[1]; 500 g/ha,very good (a very good herbicidal activity is given at values of at least 85)
same,herbicidal activity,[2]; 500 g/ha,very good (a very good herbicidal activity is given at values of at least 85)
same,herbicidal activity,[3]; 500 g/ha,very good (a very good herbicidal activity is given at values of at least 85)
CC(F)c1nc(N)nc(Nc2c(F)cc(Br)cc2F)n1 (stereo not drawn) [Example 19],herbicidal activity,VIOAR (Viola arvensis); 0.125 kg/ha,good (a good herbicidal activity is given at values of at least 70)
CC(C)(F)c1nc(N)nc(Nc2c(F)cccc2C#N)n1 [Example 38],herbicidal activity,[2]; 0.125 kg/ha,very good (a very good herbicidal activity is given at values of at least 85)
same,herbicidal activity,[3]; 0.125 kg/ha,very good (a very good herbicidal activity is given at values of at least 85)
CC(F)c1nc(N)nc(Nc2c(F)cccc2F)n1 (stereo not drawn) [Example 12],herbicidal activity,[4]; 0.125 kg/ha,very good (a very good herbicidal activity is given at values of at least 85)
same,herbicidal activity,VIOAR (Viola arvensis); 0.125 kg/ha,very good (a very good herbicidal activity is given at values of at least 85)
CC(C)(F)c1nc(N)nc(Nc2cc(F)cc(F)c2)n1 [Example 25],herbicidal activity,VIOAR (Viola arvensis); 0.125 kg/ha,very good (a very good herbicidal activity is given at values of at least 85)
CC(F)c1nc(N)nc(Nc2c(F)c(F)cc(F)c2F)n1 (stereo not drawn) [Example 17],herbicidal activity,[1]; 0.125 kg/ha,very good (a very good herbicidal activity is given at values of at least 85)
same,herbicidal activity,[5]; 0.125 kg/ha,very good (a very good herbicidal activity is given at values of at least 85)
CCC(C)(F)c1nc(NC(C)=O)nc(Nc2c(F)c(F)cc(F)c2F)n1 (stereo not drawn) [Example 207],herbicidal activity,STEME (Stellaria media); 125 g/ha,very good (a very good herbicidal activity is given at values of at least 85)
same,herbicidal activity,SETVI (Setaria viridis); 125 g/ha,very good (a very good herbicidal activity is given at values of at least 85)
same,herbicidal activity,[4]; 125 g/ha,very good (a very good herbicidal activity is given at values of at least 85)
CC(C)(Cl)c1nc(N)nc(Nc2c(F)ccc(Cl)c2F)n1 [Example 108],herbicidal activity,STEME (Stellaria media); 250 g/ha,very good (a very good herbicidal activity is given at values of at least 85)
same,herbicidal activity,[4]; 250 g/ha,very good (a very good herbicidal activity is given at values of at least 85)
same,herbicidal activity,VIOAR (Viola arvensis); 250 g/ha,very good (a very good herbicidal activity is given at values of at least 85)
CC(C)(F)c1nc(N)nc(Nc2ccc(F)c(F)c2F)n1 [Example 26],herbicidal activity,[4]; 0.125 kg/ha,good (a good herbicidal activity is given at values of at least 70)
same,herbicidal activity,VIOAR (Viola arvensis); 0.125 kg/ha,very good (a very good herbicidal activity is given at values of at least 85)
COc1ccc(F)c(F)c1Nc1nc(N)nc(C(C)(C)F)n1 [Example 61],herbicidal activity,[1]; 0.062 kg/ha,very good (a very good herbicidal activity is given at values of at least 85)
same,herbicidal activity,[2]; 0.062 kg/ha,very good (a very good herbicidal activity is given at values of at least 85)
Nc1nc(CCC(F)(F)F)nc(Nc2c(F)c(F)c(F)c(F)c2F)n1 [Example 73],herbicidal activity,STEME (Stellaria media); 250 g/ha,very good (a very good herbicidal activity is given at values of at least 85)
same,herbicidal activity,SETVI (Setaria viridis); 250 g/ha,very good (a very good herbicidal activity is given at values of at least 85)
same,herbicidal activity,[4]; 250 g/ha,very good (a very good herbicidal activity is given at values of at least 85)
CC(F)(F)c1nc(N)nc(Nc2c(F)cc(F)cc2F)n1 [Example 138],herbicidal activity,STEME (Stellaria media); 125 g/ha,very good (a very good herbicidal activity is given at values of at least 85)
same,herbicidal activity,[4]; 125 g/ha,very good (a very good herbicidal activity is given at values of at least 85)
same,herbicidal activity,VIOAR (Viola arvensis); 125 g/ha,very good (a very good herbicidal activity is given at values of at least 85)
CC(C)c1nc(N)nc(Nc2c(F)c(F)cc(F)c2F)n1 [Example 6],herbicidal activity,[1]; 0.031 kg/ha,good (a good herbicidal activity is given at values of at least 70)
same,herbicidal activity,[2]; 0.031 kg/ha,very good (a very good herbicidal activity is given at values of at least 85)
CC(C)(F)c1nc(N)nc(Nc2c(F)cc(C#N)cc2F)n1 [Example 71],herbicidal activity,[1]; 125 g/ha,good (a good herbicidal activity is given at values of at least 70)
same,herbicidal activity,[3]; 125 g/ha,very good (a very good herbicidal activity is given at values of at least 85)
CC(C)(C)c1nc(N)nc(Nc2c(F)ccc(Cl)c2F)n1 [Example 81],herbicidal activity,STEME (Stellaria media); 125 g/ha,very good (a very good herbicidal activity is given at values of at least 85)
same,herbicidal activity,[4]; 125 g/ha,very good (a very good herbicidal activity is given at values of at least 85)
same,herbicidal activity,VIOAR (Viola arvensis); 125 g/ha,very good (a very good herbicidal activity is given at values of at least 85)
Nc1nc(Nc2c(F)ccc(F)c2F)nc(C(F)(F)F)n1 [Example 127],herbicidal activity,[1]; 1000 g/ha,good (a good herbicidal activity is given at values of at least 70)
same,herbicidal activity,[2]; 1000 g/ha,very good (a very good herbicidal activity is given at values of at least 85)
same,herbicidal activity,[3]; 1000 g/ha,very good (a very good herbicidal activity is given at values of at least 85)
CC(C)(Cl)c1nc(N)nc(Nc2c(F)c(F)cc(F)c2F)n1 [Example 111],herbicidal activity,SETVI (Setaria viridis); 125 g/ha,very good (a very good herbicidal activity is given at values of at least 85)
same,herbicidal activity,[6],very good (a very good herbicidal activity is given at values of at least 85)
same,herbicidal activity,[4]; 125 g/ha,very good (a very good herbicidal activity is given at values of at least 85)
CC(C)(F)c1nc(N)nc(Nc2cc(F)c(F)c(F)c2)n1 [Example 29],herbicidal activity,VIOAR (Viola arvensis); 0.125 kg/ha,moderate (A moderate herbicidal activity is given at values of at least 60)
Nc1nc(Nc2c(F)c(F)c(Br)c(F)c2F)nc(C2CCCCC2)n1 [Example 209],herbicidal activity,STEME (Stellaria media); 250 g/ha,very good (a very good herbicidal activity is given at values of at least 85)
same,herbicidal activity,[4]; 250 g/ha,good (a good herbicidal activity is given at values of at least 70)
same,herbicidal activity,VIOAR (Viola arvensis); 250 g/ha,good (a good herbicidal activity is given at values of at least 70)
CC(F)c1nc(N)nc(Nc2c(F)cc(F)cc2F)n1 (stereo not drawn) [Example 15],herbicidal activity,SETVI (Setaria viridis); 0.0625 kg/ha,moderate (A moderate herbicidal activity is given at values of at least 60)
Nc1nc(Nc2c(F)c(F)c(Br)c(F)c2F)nc(C2CCCC2)n1 [Example 210],herbicidal activity,STEME (Stellaria media); 250 g/ha,very good (a very good herbicidal activity is given at values of at least 85)
same,herbicidal activity,[4]; 250 g/ha,very good (a very good herbicidal activity is given at values of at least 85)
same,herbicidal activity,VIOAR (Viola arvensis); 250 g/ha,very good (a very good herbicidal activity is given at values of at least 85)
CC(C)(F)c1nc(N)nc(Nc2c(F)cc(F)cc2F)n1 [Example 28],herbicidal activity,[5]; 0.125 kg/ha,very good (a very good herbicidal activity is given at values of at least 85)
same,herbicidal activity,[2]; 0.125 kg/ha,very good (a very good herbicidal activity is given at values of at least 85)
Nc1nc(C2CC2)nc(N(C(=O)C2CC2)c2c(F)c(F)cc(F)c2F)n1 [Example 285],herbicidal activity,[2]; 62 g/ha,very good (a very good herbicidal activity is given at values of at least 85)
same,herbicidal activity,[3]; 62 g/ha,good (a good herbicidal activity is given at values of at least 70)
CCC(C)c1nc(N)nc(Nc2c(F)c(F)c(F)c(F)c2F)n1 (stereo not drawn) [Example 62],herbicidal activity,STEME (Stellaria media); 125 g/ha,very good (a very good herbicidal activity is given at values of at least 85)
same,herbicidal activity,SETVI (Setaria viridis); 125 g/ha,very good (a very good herbicidal activity is given at values of at least 85)
same,herbicidal activity,[4]; 125 g/ha,very good (a very good herbicidal activity is given at values of at least 85)
Nc1nc(Nc2c(F)cc(F)cc2F)nc(C2CC2)n1 [Example 143],herbicidal activity,[1]; 500 g/ha,good (a good herbicidal activity is given at values of at least 70)
same,herbicidal activity,[2]; 500 g/ha,very good (a very good herbicidal activity is given at values of at least 85)
same,herbicidal activity,[3]; 500 g/ha,very good (a very good herbicidal activity is given at values of at least 85)
CC(C)(F)c1nc(N)nc(Nc2ccc(F)cc2F)n1 [Example 22],herbicidal activity,VIOAR (Viola arvensis); 0.125 kg/ha,good (a good herbicidal activity is given at values of at least 70)
CC(F)(F)c1nc(N)nc(Nc2c(F)c(F)cc(F)c2F)n1 [Example 8],herbicidal activity,[5]; 0.062 kg/ha,very good (a very good herbicidal activity is given at values of at least 85)
same,herbicidal activity,[3]; 0.062 kg/ha,very good (a very good herbicidal activity is given at values of at least 85)
